Measurements taken from patent publication US6852689B2, “Methods for administration of antibiotics” (priority 1998, dated 2005).
Several values for one entry are separate records, joined by “and”; a condition that tells them apart may be missing. Equal values may be shown once. Read-outs that look alike come from different tables or passages of the source.

Assays:
[1] = cited from earlier work
[2] = tested on: human volunteers and patients; conditions: in vivo, cited from earlier work
human patients = experiment: Clinical study (Example 4): serum CPK and skeletal muscle effects in hospitalized adult subjects with gram-positive infections; type: in vivo
Experimental: In order to study whether an increased dosing interval would prevent transient skeletal muscle toxicity in patients, daptomycin was administered intravenously to hospitalized adult subjects with serious gram-positive bacteremia or with a variety of infections due to gram-positive bacteria that was resistant to vancomycin or who were otherwise refractory to, or contraindicated for, currently available therapy. The subjects were treated for a period of 7-21 days. Serum CPK levels were determined prior to first antibiotic treatment and every other day for the first seven days of treatment, and daily thereafter.

[3] = Study B: steady state plasma concentrations of daptomycin on day 18 by HPLC
Experimental: In order to study the effects of threshold plasma concentration on skeletal muscle toxicity, dogs (4 male dogs/group) were administered dose regimens of saline q8h, daptomycin 5 mg/kg q24h (approximate NOELq24h) and daptomycin 5 mg/kg q8h intravenously for 20 days.
As in Example 1, steady state plasma concentrations of daptomycin on day 18 of dosing were determined by HPLC.

[4] = Study A: steady state plasma concentrations of daptomycin on day 18 by HPLC; conditions: dogs
Experimental: (§1) Skeletal muscle toxicity was measured in dogs by increases in CPK levels to above the normal range and by microscopic changes in skeletal tissue.
Steady state plasma concentrations of daptomycin on day 18 of dosing were determined by HPLC.

dogs [5] = conditions: dog, in vivo, iv, 40 mg/kg/day; cited from earlier work
[6] = human, in vivo
gram-positive bacteria = conditions: cited from earlier work
dogs [7] = experiment: Study B: skeletal muscle toxicity (serum CPK, microscopic myopathy) after repeated intravenous dosing; type: in vivo, dog
Experimental: Serum CPK levels were determined as disclosed in Example 1. […] In contrast, CPK levels at 5 mg/kg q8h were elevated compared to 5 mg/kg q24h or saline controls.

dogs [8] = experiment: Study A: skeletal muscle toxicity (serum CPK, microscopic myopathy) after repeated intravenous dosing; conditions: for Diaphragm myofiber degeneration, sites affected/sites examined / Heart myofiber degeneration, sites affected/sites examined / Skeletal muscle myofiber degeneration, sites affected/sites examined / Skeletal muscle myofiber regeneration, sites affected/sites examined: iv 20 days
Experimental: as §1
Treated animals were sacrificed at approximately one dosing interval after the last dose and muscle tissue was microscopically examined for indications of myopathy.

rats = conditions: rat, in vivo, iv, 75 mg/kg/day; cited from earlier work

CCCCCCCCCC(=O)N[C@@H](Cc1c[nH]c2ccccc12)C(=O)N[C@H](CC(N)=O)C(=O)N[C@@H](CC(=O)O)C(=O)N[C@@H]1C(=O)NCC(=O)N[C@@H](CCCN)C(=O)N[C@@H](CC(=O)O)C(=O)N[C@H](C)C(=O)N[C@@H](CC(=O)O)C(=O)NCC(=O)N[C@H](CO)C(=O)N[C@@H]([C@H](C)CC(=O)O)C(=O)N[C@@H](CC(=O)c2ccccc2N)C(=O)O[C@@H]1C [daptomycin]
Plasma protein binding [1]: high | Adverse effects ([2]; 3 mg/kg): occasional adverse effects | Patients with transient muscular weakness and pain ([2]; 4 mg/kg): two of five | Muscular pain or weakness (human patients; human, in vivo): None of the patients experienced any muscular pain or weakness | Total Number of Patients with Presumed Drug-Related Adverse Skeletal Muscle Effects/Total Evaluated (human patients; iv 7-21 days, 4 mg/kg q24h): 0/8 | Total Number of Patients with Presumed Drug-Related Adverse Skeletal Muscle Effects/Total Evaluated (human patients; iv 7-21 days, 6 mg/kg q24h, 6 mg/kg): zero of nine and 0/9 | Total Number of Patients with Presumed Drug-Related Adverse Skeletal Muscle Effects/Total Evaluated (human patients; iv, 6 mg/kg followed by 3 mg/kg q12h): 0/3 | half-life ([3]; dog, in vivo): 2.5 h | Time below 10 μg/mL plasma concentration ([3]; dogs, 5 mg/kg q8h): 6 h | AUC ratio ([3]; dogs, 5 mg/kg q8h compared to 5 mg/kg q24h): 2.6 fold higher | Time below 10 μg/mL plasma concentration ([3]; dogs, 5 mg/kg q24h): 18 h | Cmax ratio ([4]; 25 mg/kg q8h compared to 25 mg/kg q24h): 1.23 fold higher | AUC ratio ([4]; 25 mg/kg q8h compared to 75 mg/kg q24h): 0.37 fold higher | Time with plasma concentration below 27 μg/mL before next dose ([4]; 75 mg/kg q24h): approximately 12 hours | Cmax ratio ([4]; 75 mg/kg q24h compared to 25 mg/kg q8h): approximately 2.8 fold higher | Skeletal muscle finding (dogs [5]): mild myopathy | Predicted Cmax ([6]; 4 mg/kg): 69.2 µg/mL | Predicted Cmax ([6]; 6 mg/kg): 86.8 µg/mL | MIC of certain vancomycin-resistant strains relative to most vancomycin-susceptible strains (gram-positive bacteria): two- to four-fold | MIC relative to that of vancomycin (gram-positive bacteria; susceptible strains, typical): 4 fold lower | Effect on heart muscle (dogs [7]; dog, in vivo): No degenerative effect | Increases in CPK levels correlating with very minimal myofiber degeneration (dogs [7]; dog, in vivo): zero- to four-fold | Heart myofiber degeneration, sites affected/sites examined (dogs [7]; dog, in vivo, iv, 5 mg/kg): 0/4 | NOEL (dogs [7]; dogs, q24h dosing interval): approximately 5 mg/kg | Increases in serum CPK correlating with minimal skeletal myofiber degeneration (dogs [8]; dog, in vivo): three- to 25 | Microscopic effect on heart muscle (dogs [8]; dog, in vivo): No microscopic degenerative effect | Time of CPK peak during treatment (dogs [8]; dog, in vivo): approximately 1 week | Increase in CPK levels (dogs [8]; dog, in vivo, 25 mg/kg): greater than 10 fold | Incidence of Microscopic Myopathy (sites with minimal degenerative changes/sites examined) (dogs [8]; dog, in vivo, iv, 75 mg/kg): 8/28 | Peak CPK (dogs [8]; dog, in vivo, iv, 75 mg/kg): 990 U/L | Increase in toxicity as measured by incidence of microscopic myopathy (dogs [8]; dogs, 25 mg/kg three times a day compared to once daily): 5 fold | Diaphragm myofiber degeneration, sites affected/sites examined (dogs [8]; dogs, 25 mg/kg q8h): 1/4 | Heart myofiber degeneration, sites affected/sites examined (dogs [8]; dogs, 25 mg/kg q8h): 0/4 | Skeletal muscle myofiber degeneration, sites affected/sites examined (dogs [8]; dogs, 25 mg/kg q8h): 14/24 | Skeletal muscle myofiber regeneration, sites affected/sites examined (dogs [8]; dogs, 25 mg/kg q8h): 9/24 | Diaphragm myofiber degeneration, sites affected/sites examined (dogs [8]; dogs, 25 mg/kg q24h): 0/4 | Heart myofiber degeneration, sites affected/sites examined (dogs [8]; dogs, 25 mg/kg q24h): 0/4 | Skeletal muscle myofiber degeneration, sites affected/sites examined (dogs [8]; dogs, 25 mg/kg q24h): 3/24 | Skeletal muscle myofiber regeneration, sites affected/sites examined (dogs [8]; dogs, 25 mg/kg q24h): 2/24 | Diaphragm myofiber degeneration, sites affected/sites examined (dogs [8]; dogs, 75 mg/kg q24h): 0/4 | Heart myofiber degeneration, sites affected/sites examined (dogs [8]; dogs, 75 mg/kg q24h): 0/4 | Skeletal muscle myofiber degeneration, sites affected/sites examined (dogs [8]; dogs, 75 mg/kg q24h): 8/24 | Skeletal muscle myofiber regeneration, sites affected/sites examined (dogs [8]; dogs, 75 mg/kg q24h): 1/24 | Skeletal muscle finding (rats): mild myopathy
